# According to patent US20200239530A1, “COMPOUNDS AND METHODS OF MODULATING PROTEIN DEGRADATION” (Vividion Therapeutics, Inc., priority 2017, published 2020):
# Where two headings read alike, the source gives them in different places.
# Key:
# Format in all cases: binding
# [1] = molecular target: T1, Q9H0C5 (Homo sapiens, UniProt Q9H0C5); experiment: Competitive cysteine profiling, probe competition (Table 2B)
# T1 construct: 200 μL of lysate containing 5 mg/ml proteome was treated with 2 μL of 100× compound stock; endogenous in cells
# T1 sequence (Q9H0C5 1-482): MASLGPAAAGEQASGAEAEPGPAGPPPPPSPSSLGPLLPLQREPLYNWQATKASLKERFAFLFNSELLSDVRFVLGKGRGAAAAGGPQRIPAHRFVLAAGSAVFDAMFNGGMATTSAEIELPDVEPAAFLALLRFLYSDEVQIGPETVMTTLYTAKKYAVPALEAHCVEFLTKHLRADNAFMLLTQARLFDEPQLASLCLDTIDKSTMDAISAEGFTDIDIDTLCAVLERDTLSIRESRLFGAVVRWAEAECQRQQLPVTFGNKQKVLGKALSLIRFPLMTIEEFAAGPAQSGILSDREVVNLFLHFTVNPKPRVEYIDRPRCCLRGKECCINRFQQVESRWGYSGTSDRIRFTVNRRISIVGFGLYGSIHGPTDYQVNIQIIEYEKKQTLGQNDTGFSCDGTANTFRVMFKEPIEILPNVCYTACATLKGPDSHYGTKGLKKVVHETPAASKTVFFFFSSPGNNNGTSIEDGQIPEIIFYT
# Description: (§1) The following 96-well sample prep protocol was used for sample preparation.
# [2] = molecular target: T2, Q96Q07 (Homo sapiens, UniProt Q96Q07); experiment: as above
# T2 construct: 200 μL of lysate containing 5 mg/ml proteome was treated with 2 μL of 100× compound stock; endogenous in cells
# T2 sequence (Q96Q07 1-612): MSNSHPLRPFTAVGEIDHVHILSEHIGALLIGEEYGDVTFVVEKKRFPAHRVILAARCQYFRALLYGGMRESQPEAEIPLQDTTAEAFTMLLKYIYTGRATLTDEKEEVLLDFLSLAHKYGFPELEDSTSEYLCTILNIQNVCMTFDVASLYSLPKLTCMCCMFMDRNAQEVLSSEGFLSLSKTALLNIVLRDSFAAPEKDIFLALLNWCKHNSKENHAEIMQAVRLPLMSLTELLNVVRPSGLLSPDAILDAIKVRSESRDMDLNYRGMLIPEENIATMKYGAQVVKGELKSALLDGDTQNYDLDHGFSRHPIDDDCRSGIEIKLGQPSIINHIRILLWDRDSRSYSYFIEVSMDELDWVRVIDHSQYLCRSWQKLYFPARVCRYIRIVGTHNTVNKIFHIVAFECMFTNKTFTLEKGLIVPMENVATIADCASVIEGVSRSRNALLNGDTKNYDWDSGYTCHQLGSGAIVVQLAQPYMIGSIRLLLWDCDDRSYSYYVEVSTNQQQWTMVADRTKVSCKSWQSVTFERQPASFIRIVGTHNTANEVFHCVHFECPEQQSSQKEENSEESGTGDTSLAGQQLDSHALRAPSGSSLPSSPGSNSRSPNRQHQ
# Description: as §1
# [3] = molecular target: T3, HERC1 Probable E3 ubiquitin-protein ligase HERC1 (Homo sapiens, UniProt Q15751); experiment: Cysteine liganding, probe competition
# T3 construct: Cells were resuspended in cold PBS on ice and sonicated with a probe sonicator to achieve lysis; endogenous in cells
# Outline: (§2)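 Steps: sonicate cells in cold PBS; treat 5 mg/ml lysate with compound (25° C, 1 hr); add desthiobiotin iodoacetamide probe from a 10 mM stock (25° C, 1 hr); precipitate, reduce, alkylate, digest with trypsin; capture labelled peptides on streptavidin for analysis.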
# [4] = molecular target: T4, RPS6KA1 Ribosomal protein S6 kinase alpha-1 (Homo sapiens, UniProt Q15418); experiment: Cysteine liganding, probe competition
# T4 construct: Cells were resuspended in cold PBS on ice and sonicated with a probe sonicator to achieve lysis; endogenous in cells
# T4 sequence (Q15418 whole entry): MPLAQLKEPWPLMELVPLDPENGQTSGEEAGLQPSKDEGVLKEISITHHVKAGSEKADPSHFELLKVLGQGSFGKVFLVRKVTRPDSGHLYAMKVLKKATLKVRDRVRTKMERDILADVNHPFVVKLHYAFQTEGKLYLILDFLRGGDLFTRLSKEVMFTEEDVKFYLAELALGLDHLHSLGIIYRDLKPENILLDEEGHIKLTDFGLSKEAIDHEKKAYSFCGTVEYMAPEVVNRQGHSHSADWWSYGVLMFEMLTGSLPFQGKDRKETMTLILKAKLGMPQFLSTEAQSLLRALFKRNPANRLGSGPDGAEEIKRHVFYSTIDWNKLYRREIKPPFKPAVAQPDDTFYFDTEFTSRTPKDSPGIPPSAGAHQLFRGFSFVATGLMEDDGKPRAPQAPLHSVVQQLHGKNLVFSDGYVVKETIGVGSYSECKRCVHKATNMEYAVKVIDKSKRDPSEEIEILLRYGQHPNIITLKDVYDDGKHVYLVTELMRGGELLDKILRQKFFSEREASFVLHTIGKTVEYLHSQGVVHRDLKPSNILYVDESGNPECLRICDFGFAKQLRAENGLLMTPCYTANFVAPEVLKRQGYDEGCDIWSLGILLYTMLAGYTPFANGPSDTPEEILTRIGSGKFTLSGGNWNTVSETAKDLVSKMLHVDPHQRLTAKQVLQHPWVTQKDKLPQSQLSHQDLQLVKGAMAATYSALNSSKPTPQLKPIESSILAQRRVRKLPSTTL
# Outline: as §2
# [5] = molecular target: T5, BIRC3 Baculoviral IAP repeat-containing protein 3 (Homo sapiens, UniProt Q13489); experiment: Cysteine liganding, probe competition
# T5 construct: Cells were resuspended in cold PBS on ice and sonicated with a probe sonicator to achieve lysis; endogenous in cells
# T5 sequence (Q13489 whole entry): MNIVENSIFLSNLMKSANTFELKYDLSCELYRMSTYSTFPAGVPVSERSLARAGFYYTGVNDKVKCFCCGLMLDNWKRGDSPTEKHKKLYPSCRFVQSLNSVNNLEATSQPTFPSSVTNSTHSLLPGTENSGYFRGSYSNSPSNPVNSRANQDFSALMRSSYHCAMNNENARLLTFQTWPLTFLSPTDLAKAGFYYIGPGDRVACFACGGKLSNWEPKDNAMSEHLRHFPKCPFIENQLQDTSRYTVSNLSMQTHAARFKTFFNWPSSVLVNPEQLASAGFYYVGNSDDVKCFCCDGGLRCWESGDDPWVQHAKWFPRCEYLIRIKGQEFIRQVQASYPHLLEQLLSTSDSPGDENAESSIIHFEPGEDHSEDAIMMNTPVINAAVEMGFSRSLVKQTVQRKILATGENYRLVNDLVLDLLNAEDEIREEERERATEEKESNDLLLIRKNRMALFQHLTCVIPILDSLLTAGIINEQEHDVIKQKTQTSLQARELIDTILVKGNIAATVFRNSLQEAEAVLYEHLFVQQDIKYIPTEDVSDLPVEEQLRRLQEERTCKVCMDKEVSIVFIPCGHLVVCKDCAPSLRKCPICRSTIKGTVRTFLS
# Outline: as §2
compound,measurement,setting,value
C=CC(=O)N(c1ccccc1)c1ccc(Br)cc1 [KB05],KB05_500 uM_percent_inhibition,[1]; 500 uM,36%
same,inhibition at 500 µM,"[1]; 500 uM, read-out: KB05_500 uM_percent_inhibition",56%
same,inhibition at 500 µM,[2]; read-out: KB05_500 uM_percent_inhibition,65%
O=C(CCl)Nc1cc(C(F)(F)F)cc(C(F)(F)F)c1 [KBO3],500 Max,[3]; uniprot Q15751,68.4
same,500 ave,[3]; uniprot Q15751,58.0
same,100 Max,[4]; uniprot Q15418,1.03
same,100 ave,[4]; uniprot Q15418,1.03
same,500 ave,[4]; uniprot Q15418,30.61
same,500 Max,"[4]; uniprot Q15418, in % (unit assumed)",30.61
same,100 Max,[5]; uniprot Q13489,1.3
same,100 ave,[5]; uniprot Q13489,−2.6
same,500 Max,[5]; uniprot Q13489,18.7
same,500 ave,[5]; uniprot Q13489,18.7
COc1ccc2c(c1)CCCN2C(=O)CCl [KB02],inhibition at 100 µM,"[1]; 100 uM, read-out: KB02_100 uM_percent_inhibition",9%
same,KB02_500 uM_percent_inhibition,[2]; 500 uM,45%
same,inhibition at 500 µM,[2]; read-out: KB02_500 uM_percent_inhibition,54%
same,Liganded,"[3]; HERC1 Res# 56, uniprot Q15751",YES
same,Liganded,"[3]; HERC1 Res# 1941, uniprot Q15751",YES
same,Liganded,"[4]; RPS6KA1 Res# 223, uniprot Q15418",YES
same,Liganded,"[5]; BIRC3 Res# 28, uniprot Q13489",YES
